According to article PMC11790914, “Chemogenomics for steroid hormone receptors (NR3)” (Communications Chemistry, 2025):
Values joined by “and” are separate entries in the source; they are usually repeats but may differ in a detail not shown here. Equal values may be shown once. Read-outs that look alike come from different tables or passages of the source.

How the values were obtained:
HEK293T cells [1] = experiment: Cytotoxicity: necrosis induction (red fluorescent dye for permeable plasma membranes); type: cell-based; settings: 24 h, necrotic cell count normalized to 0.1% DMSO, single replicates;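 further: compounds applied in DMEM high glucose with 0.1% FCS and 0.1% DMSO, necrotic HEK293T cells counted by red staining of cells whose plasma membranes had become permeable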
ABL1 = molecular target: T1, ABL1 (Homo sapiens, UniProt P00519); experiment: Liability panel screening by DSF: ABL1; type: binding; settings: read-out: Mean ΔTM ABL1
T1 construct: made in house
Experimental: (§1) Reference ligands are listed in the methods section.
(§2) In-house produced recombinantly expressed proteins[62] of the liability panel targets were diluted in a buffer containing 10 mM HEPES (pH 7.5) and 500 mM NaCl to a concentration of 2 µM. SYPRO Orange (Invitrogen, Carlsbad, California, USA; #S6650) as a fluorescence probe was added at a 1:1000 dilution to the proteins. […] Temperature-dependent unfolding profiles were measured on a QuantStudio™ 5 real-time PCR machine (Thermo Fisher Scientific, Waltham, Massachusetts, USA; #A28140). […] The temperature was increased 3 °C per minute to a maximum temperature of 85 °C. Experiments were run as technical duplicates. […] Data were analyzed with the internal Thermal Shift Software (version 1.4, Thermo Fisher Scientific) using the Boltzmann equitation to determine the inflection point of the transition curve. Differences in melting temperature are given as ∆Tm in K. […]
(§3) scanning fluorimetry (DSF).
(§4) a concentration of 20 µM.

AURKA = molecular target: T2, AURKA (Homo sapiens, UniProt O14965); experiment: Liability panel screening by DSF: AURKA; type: binding; settings: read-out: Mean ΔTM AURKA
T2 construct: made in house
T2 sequence (O14965 1-403): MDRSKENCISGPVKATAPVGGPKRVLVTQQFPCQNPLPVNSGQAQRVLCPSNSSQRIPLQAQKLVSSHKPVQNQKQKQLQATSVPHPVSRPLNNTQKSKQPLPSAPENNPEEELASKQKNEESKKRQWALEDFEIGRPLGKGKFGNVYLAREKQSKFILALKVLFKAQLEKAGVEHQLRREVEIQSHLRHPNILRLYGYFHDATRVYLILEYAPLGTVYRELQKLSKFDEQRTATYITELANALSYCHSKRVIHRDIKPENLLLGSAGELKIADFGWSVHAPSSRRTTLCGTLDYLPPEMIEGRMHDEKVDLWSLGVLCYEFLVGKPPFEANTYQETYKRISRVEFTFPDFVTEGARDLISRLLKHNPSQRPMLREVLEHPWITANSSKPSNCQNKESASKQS
Experimental: as §1, §2, §3, §4

CDK2 = molecular target: T3, CDK2 (Homo sapiens, UniProt P24941); experiment: Liability panel screening by DSF: CDK2; type: binding; settings: read-out: Mean ΔTM CDK2
T3 construct: made in house
Experimental: as §1, §2, §3, §4

FGFR3 = molecular target: T4, FGFR3 (Homo sapiens, UniProt P22607); experiment: Liability panel screening by DSF: FGFR3; type: binding; settings: read-out: Mean ΔTM FGFR3
T4 construct: made in house
Experimental: as §1, §2, §3, §4

GSK3B = molecular target: T5, GSK3B (Homo sapiens, UniProt P49841); experiment: Liability panel screening by DSF: GSK3B; type: binding; settings: read-out: Mean ΔTM GSK3B
T5 construct: made in house

BRD4 = molecular target: T6, BRD4 (Homo sapiens, UniProt O60885); experiment: Liability panel screening by DSF: BRD4; type: binding; settings: read-out: Mean ΔTM BRD4
T6 construct: This panel comprised ten highly ligandable kinases and bromodomains; made in house
Experimental: as §1, §2, §3, §4

BRPF1 = molecular target: T7, BRPF1 (Homo sapiens, UniProt P55201); experiment: Liability panel screening by DSF: BRPF1; type: binding; settings: read-out: Mean ΔTM BRPF1
T7 construct: This panel comprised ten highly ligandable kinases and bromodomains; made in house
T7 sequence (P55201 628-732 limits assumed): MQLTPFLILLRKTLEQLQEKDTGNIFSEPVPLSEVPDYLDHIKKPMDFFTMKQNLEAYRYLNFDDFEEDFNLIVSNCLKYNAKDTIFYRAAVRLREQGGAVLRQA
Experimental: as §1, §2, §3, §4

CSNK1D = molecular target: T8, CSNK1D (Homo sapiens, UniProt P48730); experiment: Liability panel screening by DSF: CSNK1D; type: binding; settings: read-out: Mean ΔTM CSNK1D
T8 construct: made in house
Experimental: as §1, §2, §3, §4

MAPK1 = molecular target: T9, MAPK1 (Homo sapiens, UniProt P28482); experiment: Liability panel screening by DSF: MAPK1; type: binding; settings: read-out: Mean ΔTM MAPK1
T9 construct: made in house
Experimental: as §1, §2, §3, §4

TRIM24 = molecular target: T10, TRIM24 (Homo sapiens, UniProt O15164); experiment: Liability panel screening by DSF: TRIM24; type: binding; settings: read-out: Mean ΔTM TRIM24
T10 construct: This panel comprised ten highly ligandable kinases and bromodomains; made in house
T10 sequence (O15164 899-1004 limits assumed): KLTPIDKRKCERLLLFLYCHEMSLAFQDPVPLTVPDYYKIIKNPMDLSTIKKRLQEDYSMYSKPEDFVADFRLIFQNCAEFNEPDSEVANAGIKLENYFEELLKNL
Experimental: as §1, §2, §3, §4

[2] = tested on: NF-κB activity in HEK293 NF-κB reporter cells; experiment: NF-kB activity assay (GFP reporter, ionomycin/PMA); type: cell-based; settings: for Mean NFκB response: n=3
Experimental: Fig. 6 Application of the NR3 CG set.
After 24 h, cells were incubated with the test compounds solubilized with 0.1% DMSO in the same medium without puromycin. After 4 h incubation, ionomycin (100 ng/mL) and phorbol-12-myristat-13-acetate (PMA, 10 ng/mL) was added, and the cells were imaged for confluence and GFP expression every 90 min. over 24 h using a Tecan SPARK Cyto (Tecan). The number of GFP expressing cells was normalized to confluence in each sample. Each sample was repeated in three biologically independent experiments.

[3] = tested on: ATF6 activity in Hela ATF6 reporter cells; experiment: Endoplasmic reticulum stress assay (ATF6 Renilla luciferase reporter, tunicamycin); type: cell-based; settings: for ATF6 activity (tunicamycin-induced endoplasmic reticulum stress): Hela ATF6 reporter cells, tunicamycin 100 ng/mL, 18 h, compounds at recommended concentrations, n = 5
Experimental: After 24 h, cells were incubated with the test compounds solubilized with 0.1% DMSO in the same medium without puromycin. After 4 h incubation, tunicamycin (100 ng/mL) was added. After another 18 h incubation, cells were assayed for renilla luminescence using DualGlo reagent (Promega) on a Tecan SPARK Cyto (Tecan). Test samples were normalized to the 0.1% DMSO control. Each sample was repeated in five biologically independent experiments.

HEK293T cells [4] = experiment: Cytotoxicity: metabolic activity (WST-8 / CCK-8 assay); settings: HEK293T, 24 h, WST-8, normalized to 0.1% DMSO, single replicates
HEK293T cells [5] = experiment: Cytotoxicity: growth-rate (change in confluence over 24 h); settings: normalized to 0.1% DMSO control, single replicates (n=1...)
HEK293T cells [6] = experiment: Cytotoxicity: apoptosis induction (caspase-3/7 DEVD fluorogenic DNA dye); settings: HEK293T, 24 h, apoptotic cell count normalized to 0.1% DMSO, single replicates

T8 sequence (P48730 whole entry, species assumed): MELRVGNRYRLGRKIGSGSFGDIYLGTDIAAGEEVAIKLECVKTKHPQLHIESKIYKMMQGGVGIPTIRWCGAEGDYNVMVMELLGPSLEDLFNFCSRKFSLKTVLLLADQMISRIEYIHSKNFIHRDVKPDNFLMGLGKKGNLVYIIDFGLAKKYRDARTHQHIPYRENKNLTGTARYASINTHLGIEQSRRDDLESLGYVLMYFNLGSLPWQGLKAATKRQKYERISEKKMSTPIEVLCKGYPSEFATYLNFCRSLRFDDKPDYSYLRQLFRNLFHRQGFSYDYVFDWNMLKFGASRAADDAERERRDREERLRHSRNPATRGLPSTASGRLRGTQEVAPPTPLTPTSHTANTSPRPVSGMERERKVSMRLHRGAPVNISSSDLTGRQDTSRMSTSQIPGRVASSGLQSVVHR
T5 sequence (P49841 whole entry, species assumed): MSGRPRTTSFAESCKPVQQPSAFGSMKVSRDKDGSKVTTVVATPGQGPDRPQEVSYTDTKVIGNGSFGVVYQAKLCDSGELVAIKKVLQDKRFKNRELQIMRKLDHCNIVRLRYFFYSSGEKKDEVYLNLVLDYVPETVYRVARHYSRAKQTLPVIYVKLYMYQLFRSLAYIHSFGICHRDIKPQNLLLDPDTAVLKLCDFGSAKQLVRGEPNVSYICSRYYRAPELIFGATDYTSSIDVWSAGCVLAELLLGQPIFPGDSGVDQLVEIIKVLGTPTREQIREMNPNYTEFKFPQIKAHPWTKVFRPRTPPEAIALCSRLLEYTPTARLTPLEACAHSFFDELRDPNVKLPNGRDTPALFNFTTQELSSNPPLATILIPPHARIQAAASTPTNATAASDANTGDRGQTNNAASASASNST
T4 sequence (P22607 23-806, species assumed): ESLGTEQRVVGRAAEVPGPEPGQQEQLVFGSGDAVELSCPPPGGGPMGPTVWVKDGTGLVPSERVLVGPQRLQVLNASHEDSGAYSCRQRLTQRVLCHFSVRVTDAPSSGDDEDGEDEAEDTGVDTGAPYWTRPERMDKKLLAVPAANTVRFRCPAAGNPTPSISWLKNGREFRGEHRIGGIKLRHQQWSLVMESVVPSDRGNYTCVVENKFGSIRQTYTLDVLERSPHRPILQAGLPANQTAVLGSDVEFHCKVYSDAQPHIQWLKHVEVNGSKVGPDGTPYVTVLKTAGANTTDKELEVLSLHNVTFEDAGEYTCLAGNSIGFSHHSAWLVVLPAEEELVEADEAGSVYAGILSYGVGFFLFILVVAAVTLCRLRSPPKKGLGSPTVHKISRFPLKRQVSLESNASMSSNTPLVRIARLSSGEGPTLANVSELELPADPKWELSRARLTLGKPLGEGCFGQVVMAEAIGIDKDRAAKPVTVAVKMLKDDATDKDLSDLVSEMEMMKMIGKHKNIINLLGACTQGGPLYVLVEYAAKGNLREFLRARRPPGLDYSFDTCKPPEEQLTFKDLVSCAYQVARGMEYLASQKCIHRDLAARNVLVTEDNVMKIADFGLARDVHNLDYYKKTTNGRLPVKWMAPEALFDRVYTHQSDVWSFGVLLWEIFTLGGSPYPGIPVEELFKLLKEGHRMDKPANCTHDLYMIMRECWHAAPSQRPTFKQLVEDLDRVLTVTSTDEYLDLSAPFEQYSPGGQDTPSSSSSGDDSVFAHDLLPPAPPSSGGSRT
T1 sequence (P00519 whole entry, species assumed): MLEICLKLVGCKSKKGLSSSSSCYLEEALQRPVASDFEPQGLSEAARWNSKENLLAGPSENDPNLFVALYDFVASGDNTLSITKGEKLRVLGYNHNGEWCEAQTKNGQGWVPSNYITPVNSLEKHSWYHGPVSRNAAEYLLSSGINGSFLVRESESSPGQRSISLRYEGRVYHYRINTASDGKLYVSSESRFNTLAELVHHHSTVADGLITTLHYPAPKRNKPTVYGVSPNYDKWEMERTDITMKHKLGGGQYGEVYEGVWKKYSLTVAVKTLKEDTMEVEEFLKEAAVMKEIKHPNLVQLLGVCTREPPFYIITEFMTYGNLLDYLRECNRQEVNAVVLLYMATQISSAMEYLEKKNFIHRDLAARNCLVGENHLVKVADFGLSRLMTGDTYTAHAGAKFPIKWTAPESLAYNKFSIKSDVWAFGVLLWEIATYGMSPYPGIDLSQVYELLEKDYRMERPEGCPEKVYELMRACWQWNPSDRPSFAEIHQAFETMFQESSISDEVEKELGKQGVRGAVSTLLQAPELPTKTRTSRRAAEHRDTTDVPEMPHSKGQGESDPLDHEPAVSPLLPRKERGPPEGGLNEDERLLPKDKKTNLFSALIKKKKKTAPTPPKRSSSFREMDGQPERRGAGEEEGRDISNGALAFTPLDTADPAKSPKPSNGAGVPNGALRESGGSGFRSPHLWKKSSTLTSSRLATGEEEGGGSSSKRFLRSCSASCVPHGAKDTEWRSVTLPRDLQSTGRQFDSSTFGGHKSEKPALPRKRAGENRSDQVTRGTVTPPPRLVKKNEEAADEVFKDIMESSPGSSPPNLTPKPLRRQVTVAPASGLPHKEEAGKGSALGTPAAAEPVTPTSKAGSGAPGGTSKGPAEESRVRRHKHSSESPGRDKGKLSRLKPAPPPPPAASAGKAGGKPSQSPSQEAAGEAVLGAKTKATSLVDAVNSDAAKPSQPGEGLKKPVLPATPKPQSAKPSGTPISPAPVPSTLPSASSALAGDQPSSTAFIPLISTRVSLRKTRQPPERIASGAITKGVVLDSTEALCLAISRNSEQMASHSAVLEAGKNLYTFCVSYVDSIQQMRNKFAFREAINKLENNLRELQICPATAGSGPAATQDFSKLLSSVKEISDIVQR
T9 sequence (P28482 whole entry, species assumed): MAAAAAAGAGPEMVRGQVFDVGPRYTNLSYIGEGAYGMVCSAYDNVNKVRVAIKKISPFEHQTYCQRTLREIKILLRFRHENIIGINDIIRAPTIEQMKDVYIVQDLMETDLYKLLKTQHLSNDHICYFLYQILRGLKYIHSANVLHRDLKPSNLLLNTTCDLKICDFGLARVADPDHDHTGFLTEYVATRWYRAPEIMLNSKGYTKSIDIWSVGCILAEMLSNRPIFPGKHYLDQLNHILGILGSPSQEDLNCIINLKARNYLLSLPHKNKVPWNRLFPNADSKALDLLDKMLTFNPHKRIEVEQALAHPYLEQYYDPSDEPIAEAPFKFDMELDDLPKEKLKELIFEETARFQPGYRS

CN(C)CCOc1ccc(/C(=C(/CCCO)c2ccccc2)c2ccc(O)cc2)cc1 [GSK5182]
Necrosis induction [NI] (HEK293T cells [1]; 10 µM): 0.56 and 0.11 and 0.30 and 0.25 | ΔTm at 20 µM (ABL1; DSF, 20 µM, n=2): 0.43 °C | ΔTm at 20 µM (AURKA; DSF, 20 µM, n=2): -0.17 °C | ΔTm at 20 µM (CDK2; DSF, 20 µM, n=2): 0.68 °C | ΔTm at 20 µM (FGFR3; DSF, 20 µM, n=2): 0.62 °C | ΔTm at 20 µM (GSK3B; DSF, 20 µM, n=2): -1.96 °C | ΔTm at 20 µM (BRD4; DSF, 20 µM, n=2): -2.92 °C | ΔTm at 20 µM (BRPF1; DSF, 20 µM, n=2): -1.74 °C | ΔTm at 20 µM (CSNK1D; DSF, 20 µM, n=2): -0.68 °C | ΔTm at 20 µM (MAPK1; DSF, 20 µM, n=2): 0.14 °C | ΔTm at 20 µM (TRIM24; DSF, 20 µM, n=2): -0.25 °C | Mean NFκB response ([2]; 10 µM, 1,5 h): 4124.00 GFP+-cells/confluence ∙ 1000 | Mean NFκB response ([2]; 10 µM, 4,5 h): 4518.85 GFP+-cells/confluence ∙ 1000 | Mean NFκB response ([2]; 10 µM, 7,5 h): 8291.63 GFP+-cells/confluence ∙ 1000 | Mean NFκB response ([2]; 10 µM, 10,5 h): 18033.90 GFP+-cells/confluence ∙ 1000 | Mean NFκB response ([2]; 10 µM, 13,5 h): 26386.99 GFP+-cells/confluence ∙ 1000 | Mean NFκB response ([2]; 10 µM, 16,6 h): 32458.21 GFP+-cells/confluence ∙ 1000 | Mean NFκB response ([2]; 10 µM, 19,5 h): 36483.54 GFP+-cells/confluence ∙ 1000 | Mean NFκB response ([2]; 10 µM, 22,5 h): 40081.60 GFP+-cells/confluence ∙ 1000 | Mean NFκB response ([2]; 10 µM, 3 h): 4121.32 GFP+-cells/confluence ∙ 1000 | Mean NFκB response ([2]; 10 µM, 6 h): 5330.81 GFP+-cells/confluence ∙ 1000 | Mean NFκB response ([2]; 10 µM, 9 h): 13339.51 GFP+-cells/confluence ∙ 1000 | Mean NFκB response ([2]; 10 µM, 12 h): 22208.27 GFP+-cells/confluence ∙ 1000 | Mean NFκB response ([2]; 10 µM, 15 h): 29794.15 GFP+-cells/confluence ∙ 1000 | Mean NFκB response ([2]; 10 µM, 18 h): 34711.23 GFP+-cells/confluence ∙ 1000 | Mean NFκB response ([2]; 10 µM, 21 h): 38030.00 GFP+-cells/confluence ∙ 1000 | Mean NFκB response ([2]; 10 µM, 24 h): 41021.29 GFP+-cells/confluence ∙ 1000 | ATF6 activity (tunicamycin-induced endoplasmic reticulum stress) [3]: lacked this effect | activity at 10 µM ([3]; Homo sapiens, HeLa, 10 µM, single replicates n=1 to n=5, read-out: ER stress [rel. ATF6 activity]): 88% | Metabolic activity [MA] (HEK293T cells [4]; 10 µM): 0.99 and 0.91 (2×) and 0.85 and 1.04 and 1.01 and 0.95 and 0.93 | Growth rate [GR] (HEK293T cells [5]; 10 µM): 0.52 and 3.08 and 0.59 and 0.82 and 0.68 and 0.29 and 0.42 and 1.20 and 1.31 and 8.43 | Apoptosis induction [AI] (HEK293T cells [6]; 10 µM): 0.95 and 1.15 and 0.71 and 1.22 (2×) and 1.40

O=S(=O)(Cc1ccccc1)Nc1ccc(-c2ccc3c(cnn3-c3ccc(F)cc3)c2)c(C(F)(F)F)c1 [GSK9027]
Necrosis induction [NI] (HEK293T cells [1]; 1 µM): 0.93 and 0.78 and 0.76 and 1.05 | ΔTm at 20 µM (ABL1): 1.8 °C | ΔTm at 20 µM (AURKA): 1.2 °C | ΔTm at 20 µM (CDK2): 0.1 °C | ΔTm at 20 µM (FGFR3): -0.29 °C | ΔTm at 20 µM (GSK3B): 1.24 °C | ΔTm at 20 µM (BRD4): 1.58 °C | ΔTm at 20 µM (BRPF1): 1.21 °C | ΔTm at 20 µM (CSNK1D): -1.92 °C | ΔTm at 20 µM (MAPK1): -2.07 °C | ΔTm at 20 µM (TRIM24): 1.36 °C | Mean NFκB response ([2]; 1 µM, 1,5 h): 2917.80 GFP+-cells/confluence ∙ 1000 | Mean NFκB response ([2]; 1 µM, 4,5 h): 3437.70 GFP+-cells/confluence ∙ 1000 | Mean NFκB response ([2]; 1 µM, 7,5 h): 4957.90 GFP+-cells/confluence ∙ 1000 | Mean NFκB response ([2]; 1 µM, 10,5 h): 8098.89 GFP+-cells/confluence ∙ 1000 | Mean NFκB response ([2]; 1 µM, 13,5 h): 11113.03 GFP+-cells/confluence ∙ 1000 | Mean NFκB response ([2]; 1 µM, 16,6 h): 13521.21 GFP+-cells/confluence ∙ 1000 | Mean NFκB response ([2]; 1 µM, 19,5 h): 14898.72 GFP+-cells/confluence ∙ 1000 | Mean NFκB response ([2]; 1 µM, 22,5 h): 15985.14 GFP+-cells/confluence ∙ 1000 | Mean NFκB response ([2]; 1 µM, 3 h): 2869.62 GFP+-cells/confluence ∙ 1000 | Mean NFκB response ([2]; 1 µM, 6 h): 4105.89 GFP+-cells/confluence ∙ 1000 | Mean NFκB response ([2]; 1 µM, 9 h): 6294.49 GFP+-cells/confluence ∙ 1000 | Mean NFκB response ([2]; 1 µM, 12 h): 9593.56 GFP+-cells/confluence ∙ 1000 | Mean NFκB response ([2]; 1 µM, 15 h): 12593.25 GFP+-cells/confluence ∙ 1000 | Mean NFκB response ([2]; 1 µM, 18 h): 14186.97 GFP+-cells/confluence ∙ 1000 | Mean NFκB response ([2]; 1 µM, 21 h): 15313.70 GFP+-cells/confluence ∙ 1000 | Mean NFκB response ([2]; 1 µM, 24 h): 16630.14 GFP+-cells/confluence ∙ 1000 | NF-κB activity (inflammatory response to ionomycin/PMA) ([2]; HEK293 NF-κB reporter cells, compounds at recommended concentrations, imaged over 24 h, n = 3): consistently delayed and strongly diminished NF-κB activity | ATF6 activity (tunicamycin-induced endoplasmic reticulum stress) [3]: Consistently weaker ATF6 activity | activity at 1 µM ([3]; Homo sapiens, HeLa, 1 µM, single replicates n=1 to n=5, read-out: ER stress [rel. ATF6 activity]): 76% | Metabolic activity [MA] (HEK293T cells [4]; 1 µM): 1.03 and 1.01 (3×) and 0.96 and 1.00 and 1.18 and 1.15 | Growth rate [GR] (HEK293T cells [5]; 1 µM): 0.54 and 0.80 and 0.72 and 0.98 and 0.70 and 0.66 and 0.84 and 1.89 and 2.05 and 4.10 | Apoptosis induction [AI] (HEK293T cells [6]; 1 µM): 0.65 and 1.04 and 0.83 and 0.94 and 0.36 and 0.86
